In patent US8846665B2, “6,7-dihydro-[1,3,4]thiadiazolo-[3,2-a][1,3]diazepin derivative and pharmaceutical composition containing the same as neuromuscular blocker or skeletal muscle relaxant, and method for the preparation” (King Saud University, priority 2011, dated 2014):
Several values for one entry are separate records, joined by “and”; a condition that tells them apart may be missing. Equal entries are not always repeated. Where two headings read alike, the source gives them in different places.

How the values were obtained:
[1] = test system: rat tibialis electrically-induced twitches; assay: Neuromuscular blocking activity in rats (sciatic nerve-tibialis twitch); type: in vivo; conditions: for ED50 (mmole/kg i.p.): dose producing 50% reduction of the rat tibialis twitch; for Duration of the Block / Time of 50% Block / Time of 90% Block / Time of onset of Block: rat tibialis twitches; for Effect of Physostigmine: reversal of block by physostigmine, single bolus; for Time for 100% Reversal / Time of onset of Reversal: after physostigmine
[2] = literature classification, cited from earlier work; for Onset of action: following bolus i.v. administration
4-day old chicks = assay: Neuromuscular blocking activity in chicks (head drop, type of paralysis); type: in vivo, chick
Protocol: Adult male Wistar rats (250 g) and 4-day old chicks (50 g) were used to conduct the neuromuscular blocking activity evaluation. They were housed in cages and kept at a temperature of 20±2° C. and a relative humidity of 55±5% with a light-dark cycle of 12 h. The animals were provided with Purina rodent's chow pellets supplied by Grain silos and Flour Mills Organization, Riyadh, Saudi Arabia and had both food and water ad libitum. The chicks were bought from the local market in Riyadh. Male Wistar rats (250 g) were randomly divided into various groups (N=4-8 animals). The animals were prepared following modifications of the reported method (Henning, R. Br. J. Pharmacol. 1993, 108, 717-720; Thesleff, S. et al, J. Pharmacol. Expt. Ther. 1954, 111, 99-118). Test drugs, standards or vehicles were administered intraperitoneal dissolved in dimethyl sulfoxide, or water as appropriate in various doses 1-100 mg/kg. In all experiments a control group was included and received intraperitoneal injections of the test compounds' vehicle. […] Also the dose that produced 90% of twitches depression was calculated. The response of the muscle to titanic stimulation was tested before administration of any drug and following 90% inhibition of the twitches.
Intraperitoneal administration of compounds of the formula 1 in single doses ranged from of 0.15-0.3 mmoles/kg, induced flaccid paralysis of the chicks within 1-15 minutes. The paralysis started with head movement and drop; then complete flaccid paralysis occurred. The onset of head drops were ranged from 15 sec-11 minutes whereas the flaccid paralysis ranged from 1-15 minutes following administration. Atracurium and Succinylcholine were used as positive controls. The mechanism of action of compounds of the formula 1 was similar but with more rapid onset of action than that of Atracurium; and almost similar to that of Succinylcholine. Representative example is shown in Example 4.
The effects of GS-53 and the standard drugs Succinylcholine and Atracurium were administered to 4-day old chicks to confirm the mode of the neuromuscular blockade (Buttle, G. et al, J. Pharm. Pharmacol. 1949, 1, 991-992; Thesleff, S. et al, J. Pharmacol. Expt. Ther. 1954, 111, 99-118; ELTahir, K. Guide to Drug Discovery, 2008, Riyadh, KSA). […] Intraperitoneal administration of GS-53 in single dose of 0.15 mmoles/kg, induced flaccid paralysis of the chicks within one minute. The paralysis started with head movement and drop; then complete flaccid paralysis occurred. The onset of head drop was 15 sec whereas the flaccid paralysis was one minute following administration. Atracurium and Succinylcholine were used as positive controls. The mechanism of action GS-53 seemed to be similar but with more rapid onset of action than that of Atracurium; and almost similar to that of Succinylcholine (Table 2).

[3] = Determination of the lethal dose (LD50); conditions: male, mouse, in vivo, ip, male mice, intraperitoneal
Protocol: The LD50 values of compounds of formula 1 were performed. Compounds were given intraperitoneally in doses ranging from 0.1-5 mmole/kg. […] All behavioral changes and death during the observation periods were recorded. The percentage of death at each dose level was then calculated, and the LD50 values were obtained (Ghosh, M., Fundamentals of Experimental Pharmacology, Scientific Book Agency, Calcutta. 1984, pp 153-158, 187-189). The Therapeutic Index of each compound was calculated following the determination of the effective neuromuscular blocking dose. Representative example is shown in Example 5.
Male mice were divided into various groups and GS-53 was administered in various doses ranging from 0.1-5 mmole/kg, intraperitoneal. […] All behavioral changes and death during the observation periods were recorded.

[4] = single dose of 0.15 mmoles/kg i.p.

SMILES	ED50 (mmole/kg i.p.) ([1]; i.p.) [mmol/kg]	Duration of the Block ([1]; i.p.) [min]	Time of 50% Block ([1]; i.p.) [min]	Time of 90% Block ([1]; i.p.) [min]	Time of onset of Block ([1]; i.p.) [min]	Effect of Physostigmine [1]	Onset of action [2]	Duration [2] [min]	ED50 (mmole/kg i.p.) (4-day old chicks; i.p.) [mmol/kg]	Mechanism of action (4-day old chicks; i.p.)	Onset of muscle relaxation (4-day old chicks; i.p.) [min]	Type of neuromuscular paralysis (4-day old chicks; i.p.)	Time for 100% Reversal [1] [min]	Time of onset of Reversal [1] [min]	Onset of head drop (4-day old chicks; i.p.) [min]	other results
C[N+](C)(C)CCOC(=O)CCC(=O)OCC[N+](C)(C)C [Succinylcholine]	0.03	20 ± 1.8	3 ± 0.1	5 ± 0.2	2 ± 0.1	No Reversal	within a minute	5	0.03	Depolarizing	0.5 ± 0.02	Spastic	–	–	–	–
O=C1CCCN2N=C(c3ccc(Br)cc3)SC2=N1 [GS-53, (E)-2-(4-bromophenyl)-6,7-dihydro-[1,3,4]thiadiazolo[3,2-a][1,3]diazepin-8(5H)-one]	0.15	70 ± 12	7 ± 0.6	10 ± 3	3 ± 0.9	completely reversed and 100% Reversal	–	–	0.15	Competitive	1 ± 0.08	Flaccid	6 ± 1.2	1.0	0.25 ± 0.1	ED50 (mmole/kg i.p.), value in brackets in mg ([1]; i.p., rat tibialis twitch): 48.6 mg; Duration of action relative to Atracurium ([1]; rat, ratio of durations of block): 2.3 times; LD50 at 72 h ([3]; observation 72 hours, read-out: LD50): 195 mg/kg; LD50 at 72 h ([3]; read-out: LD50 95% confidence limits): 185 to 205 mg/kg; ED50 (mmole/kg i.p.), value in brackets in mg (4-day old chicks; i.p.): 48.6 mg/kg; Onset of flaccid paralysis (4-day old chicks; [4]): one; Onset of head drop (4-day old chicks; [4]): 0.25 min
COc1ccc(CC2c3cc(OC)c(OC)cc3CC[N+]2(C)CCC(=O)OCCCCCOC(=O)CC[N+]2(C)CCc3cc(OC)c(OC)cc3C2Cc2ccc(OC)c(OC)c2)cc1OC (centres unmarked) [Atracurium]	0.016	30 ± 6	8 ± 0.2	12 ± 1.3	5 ± 0.8	100% Reversal	–	–	0.016	Competitive	10 ± 0.8	Flaccid	3 ± 0.4	2.0	5 ± 0.8	–
COc1cc2c(cc1OC)[C@H](c1cc(OC)c(OC)c(OC)c1)[N@@+](C)(CCCOC(=O)/C=C(\Cl)C(=O)OCCC[N@+]1(C)CCc3cc(OC)c(OC)cc3[C@H]1Cc1cc(OC)c(OC)c(OC)c1)CC2 [Gantacurium]	–	–	–	–	–	–	within a minute	5	–	–	–	–	–	–	–	–
